In ChEMBL document CHEMBL1201862, “PubChem BioAssay data set” (2004):
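Following 48 hours of exposure in 96-well plates, responses at five concentrations were used to interpolate endpoints linearly. GI50: concentration for 50% inhibition of growth.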 Calls of active or inactive are those of the source. Rule as the data show it: active = GI50 up to about 1.1 µM and inactive = higher.

Experiments:
Assay in all cases: NCI anticancer screen, dose series, 48 h
NCI-H460 = test system: NCI-H460
HT-29 = test system: HT-29
MOLT-4 = test system: MOLT-4
OVCAR-5 = test system: OVCAR-5
MCF7 = test system: MCF7
IGROV-1 = test system: IGROV-1
CCRF-CEM = test system: CCRF-CEM
OVCAR-4 = test system: OVCAR-4
SNB-19 = test system: SNB-19
HOP-62 = test system: HOP-62
NCI-H522 = test system: NCI-H522
RXF 393 = test system: RXF 393
EKVX = test system: EKVX
COLO 205 = test system: COLO 205
OVCAR-3 = test system: OVCAR-3
SF-539 = test system: SF-539
NCI/ADR-RES = test system: NCI/ADR-RES
Hs-578T = test system: Hs-578T
SF-295 = test system: SF-295
NCI-H23 = test system: NCI-H23

Row | SMILES | GI50 (NCI-H460) | GI50 (HT-29) | GI50 (MOLT-4) | GI50 (OVCAR-5) | GI50 (MCF7) | GI50 (IGROV-1) | GI50 (CCRF-CEM) | GI50 (OVCAR-4) | GI50 (SNB-19) | GI50 (HOP-62) | GI50 (NCI-H522) | GI50 (RXF 393) | GI50 (EKVX) | GI50 (COLO 205) | GI50 (OVCAR-3) | GI50 (SF-539) | GI50 (NCI/ADR-RES) | GI50 (Hs-578T) | GI50 (SF-295) | GI50 (NCI-H23)
1 | COC(=O)C1=C(C)NC(=O)N2[C@@H](CCOCc3ccccc3)CC[C@@H]12 | > 50 µM (inactive) | > 50 µM (inactive) | 47.9 µM (inactive) | > 50 µM (inactive) | > 50 µM (inactive) | > 50 µM (inactive) | > 50 µM (inactive) | > 50 µM (inactive) | > 50 µM (inactive) | > 50 µM (inactive) | > 50 µM (inactive) | 13.1 µM (inactive) | > 50 µM (inactive) | > 50 µM (inactive) | > 50 µM (inactive) | > 50 µM (inactive) | > 50 µM (inactive) | > 50 µM (inactive) | > 50 µM (inactive) | > 50 µM (inactive)
2 | CCOC(=O)c1cnccc1CC1(C#N)c2ccccc2C=CN1C(=O)c1ccccc1 (stereo not given) | 23.4 µM (inactive) | 12.3 µM (inactive) | 15.5 µM (inactive) | 80.2 µM (inactive) | 39.2 µM (inactive) | 17.3 µM (inactive) | 40.3 µM (inactive) | 21.7 µM (inactive) | 70 µM (inactive) | 53.2 µM (inactive) | 18.6 µM (inactive) | 64.9 µM (inactive) | 36.5 µM (inactive) | 28.2 µM (inactive) | 31.6 µM (inactive) | 30.1 µM (inactive) | 27.7 µM (inactive) | 13 µM (inactive) | 53.6 µM (inactive) | 32.5 µM (inactive)
3 | CCCCCCCCCCCCCCCCCCNc1nc(=O)n(C2CC(O)C(COP(=O)(O)O)O2)cc1F (stereo not given) | 35.5 µM (inactive) | > 100 µM (inactive) | 36 µM (inactive) | > 100 µM (inactive) | 16.9 µM (inactive) | > 74.8 µM (inactive) | 38 µM (inactive) | > 100 µM (inactive) | > 100 µM (inactive) | 81.7 µM (inactive) | > 100 µM (inactive) | > 80 µM (inactive) | 99.5 µM (inactive) | > 67.1 µM (inactive) | > 100 µM (inactive) | 15 µM (inactive) | > 35.6 µM (inactive) | > 100 µM (inactive) | > 80.7 µM (inactive) | 58.1 µM (inactive)
4 | BrC1(c2ccccc2)C[n+]2c(-c3ccccc3)cc(-c3ccccc3)cc2-c2ccccc21 (stereo not given) | 0.444 µM (active) | 0.34 µM (active) | 0.631 µM (active) | 1.27 µM (inactive) | 0.184 µM (active) | 0.289 µM (active) | 0.52 µM (active) | 0.977 µM (active) | 0.551 µM (active) | 0.611 µM (active) | 0.384 µM (active) | 0.183 µM (active) | 0.457 µM (active) | 0.157 µM (active) | 0.0489 µM (active) | 0.764 µM (active) | 17.9 µM (inactive) | 0.231 µM (active) | 1.03 µM (active) | 1 µM (active)
5 | CCN(CC)CCN(C)c1ccc(CO)c2c1c(=O)c1ccccc1[s+]2[O-] (stereo not given) | 4.62 µM (inactive) | 2.11 µM (inactive) | 2.25 µM (inactive) | 11.4 µM (inactive) | 9.77 µM (inactive) | 16.9 µM (inactive) | 3.78 µM (inactive) | 5.6 µM (inactive) | 13.2 µM (inactive) | 4.52 µM (inactive) | 2.02 µM (inactive) | 12 µM (inactive) | 5.96 µM (inactive) | 7.06 µM (inactive) | 1.95 µM (inactive) | 1.82 µM (inactive) | 1.74 µM (inactive) | 12 µM (inactive) | 13.6 µM (inactive) | 4.08 µM (inactive)
6 | CCC/C(C)=N/NC(=S)SC.CCC/C(C)=N/NC(=S)SC.[Zn+2] | 16 µM (inactive) | 3.07 µM (inactive) | 1.47 µM (inactive) | 10.3 µM (inactive) | 7.24 µM (inactive) | 2.56 µM (inactive) | 2.16 µM (inactive) | 14.1 µM (inactive) | 16.2 µM (inactive) | 9.75 µM (inactive) | 11.3 µM (inactive) | 17.1 µM (inactive) | 15 µM (inactive) | 14.2 µM (inactive) | 10.2 µM (inactive) | 13.7 µM (inactive) | 16.7 µM (inactive) | 15.7 µM (inactive) | 3.15 µM (inactive) | 13.7 µM (inactive)
7 | CCN(CC)C1CCC(C2c3cc4c(cc3OC(N3CCOCC3)C2C)OCO4)CC1 (stereo not given) | 16.3 µM (inactive) | 5.75 µM (inactive) | 10.1 µM (inactive) | 36.4 µM (inactive) | 22.6 µM (inactive) | > 27.9 µM (inactive) | 27.2 µM (inactive) | > 100 µM (inactive) | 71.4 µM (inactive) | 18.3 µM (inactive) | 12.4 µM (inactive) | 10.7 µM (inactive) | 22.8 µM (inactive) | 7.98 µM (inactive) | 14.7 µM (inactive) | 22.3 µM (inactive) | 27 µM (inactive) | 28.7 µM (inactive) | 9.46 µM (inactive) | 19.6 µM (inactive)
8 | CCOC1CN=C(Nc2cccc3ccccc23)S1 (stereo not given) | > 10 µM (inactive) | > 10 µM (inactive) | > 10 µM (inactive) | > 10 µM (inactive) | > 10 µM (inactive) | > 10 µM (inactive) | > 10 µM (inactive) | > 10 µM (inactive) | > 10 µM (inactive) | > 10 µM (inactive) | > 10 µM (inactive) | > 10 µM (inactive) | > 10 µM (inactive) | > 10 µM (inactive) | > 10 µM (inactive) | > 10 µM (inactive) | > 10 µM (inactive) | > 10 µM (inactive) | > 10 µM (inactive) | > 10 µM (inactive)
9 | COC1=C(OC)C(=O)C(Sc2ccc3ccccc3c2)=CC1=O | 7.67 µM (inactive) | 14.7 µM (inactive) | 1.68 µM (inactive) | 15.6 µM (inactive) | 4.25 µM (inactive) | 12.4 µM (inactive) | 1.29 µM (inactive) | 3.67 µM (inactive) | 14.1 µM (inactive) | 13.2 µM (inactive) | 1.82 µM (inactive) | 6.85 µM (inactive) | 11.9 µM (inactive) | 7.24 µM (inactive) | 4.63 µM (inactive) | 13.5 µM (inactive) | 14.7 µM (inactive) | 14.9 µM (inactive) | 9.42 µM (inactive) | 11.2 µM (inactive)
